In patent US9701672B2, “Dihydropyridinone MGAT2 inhibitors for use in the treatment of metabolic disorders” (BRISTOL-MYERS SQUIBB COMPANY, priority 2014, dated 2017):

Target: human MGAT-2 (Homo sapiens (Human), UniProt Q3SYC2)
Test: MGAT LCMS assay (h-MGAT LCMS)
Assay type: biochemical
Conditions: human MGAT2 membranes expressed in Sf9 cells; 100 μM 2-oleoylglycerol, 15 μM oleoyl-coenzyme A
Method: The MGAT enzyme reactions were performed in Corning FALCON® 96-well polypropylene plates, in a total volume of 60 μL of 50 mM potassium phosphate buffer pH 7.4, containing a final concentration of 100 μM 2-oleoylglycerol, 15 μM oleoyl-coenzyme A and 0.0013 μg/μL human or mouse MGAT-2 or 0.0026 μg/μL rat recombinant MGAT-2 membranes expressed in Sf9 cells. Assay plates were run through a fully automated robotics system and shaken for 5 seconds every minute for a total 10 minutes. The reactions were then quenched with 120 μL of ice cold methanol containing 1 μg/mL 1,2-distearoyl-rac-glycerol as the internal standard. Plates were shaken for 2 minutes and spun down to remove protein precipitation. After the spin, samples were transferred to LC/MS compatible PCR plates. For LC/MS analysis, a ThermoFisher Surveyor pump, utilizing a Waters […]® C8, 50×2.1 mm column, was used for the chromatography of enzyme products. The buffer system consists of 0.1% formic acid in water with a mobile phase consisting 0.1% formic acid in methanol. The shallow gradient is 90-100% mobile phase in 0.2 min with a total run time of 2.3 min. The first 0.5 minutes of each injection was diverted to waste to eliminate the presence of phosphate buffer in the enzymatic reaction. The column was run at 0.6 mL/min and a temperature of 65° C. Mass spectrometry analysis of the samples was performed on a ThermoFisher Quantum Triple quad utilizing APCI (+) as the mode of ionization. Data was acquired in Single Ion Monitoring (SIM) mode analyzing Diolein=m/z 603.6 (PRODUCT) and 1,2-distearoyl-rac-glycerol (IS)=m/z 607.6. The ratio of Diolein to internal standard (Peak Area Ratio) is utilized to calculate IC50 values.
“NT” denotes “Not tested”.

Sequence of human MGAT-2 (Q3SYC2 whole entry): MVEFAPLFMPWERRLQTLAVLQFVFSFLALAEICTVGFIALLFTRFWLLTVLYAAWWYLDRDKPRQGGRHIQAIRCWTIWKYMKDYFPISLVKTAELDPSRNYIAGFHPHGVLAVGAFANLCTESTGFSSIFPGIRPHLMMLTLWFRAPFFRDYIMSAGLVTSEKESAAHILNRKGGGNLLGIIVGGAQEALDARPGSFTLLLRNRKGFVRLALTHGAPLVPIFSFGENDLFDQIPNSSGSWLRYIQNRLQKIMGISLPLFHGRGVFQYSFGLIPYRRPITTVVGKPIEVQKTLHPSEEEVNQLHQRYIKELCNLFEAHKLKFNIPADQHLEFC

Structure (SMILES) | IC50 [nM]
Cc1ccc(C2=C(C#N)C(=O)N[C@@](c3ccc(OCCCC(F)(F)F)cc3)(C(F)(F)F)C2)s1 [Example 67, (S)-4-(5-Methylthiophen-2-yl)-2-oxo-6-(4-(4,4,4-trifluorobutoxy)phenyl)-6-(trifluoromethyl)-1,2,5,6-tetrahydropyridine-3-carbonitrile] | 97.6
N#CC1=C(c2ccc(Cl)s2)C[C@](c2ccc(OCCCC(F)(F)F)cc2)(C(F)(F)F)NC1=O [Example 68, (S)-4-(5-Chlorothiophen-2-yl)-2-oxo-6-(4-(4,4,4-trifluorobutoxy)phenyl)-6-(trifluoromethyl)-1,2,5,6-tetrahydropyridine-3-carbonitrile] | 30.2
Cc1csc(C2=C(C#N)C(=O)N[C@@](c3ccc(OCCCC(F)(F)F)cc3)(C(F)(F)F)C2)c1 [Example 69, (S)-4-(4-Methylthiophen-2-yl)-2-oxo-6-(4-(4,4,4-trifluorobutoxy)phenyl)-6-(trifluoromethyl)-1,2,5,6-tetrahydropyridine-3-carbonitrile] | 148
COc1ccc(C2=C(C#N)C(=O)N[C@@](c3ccc(OCCCCCC(F)(F)F)cc3)(C(F)(F)F)C2)cn1 [Example 72, (S)-6-Methoxy-2′-oxo-6′-(4-((6,6,6-trifluorohexyl)oxy)phenyl)-6′-(trifluoromethyl)-1′,2′,5′,6′-tetrahydro-[3,4′-bipyridine]-3′-carbonitrile] | 10.3
N#CC1=C(c2ccc(C3CC3)s2)C[C@](c2ccc(OCCCC(F)(F)F)cc2)(C(F)(F)F)NC1=O [Example 74, (S)-4-(5-Cyclopropylthiophen-2-yl)-2-oxo-6-(4-(4,4,4-trifluorobutoxy)phenyl)-6-(trifluoromethyl)-1,2,5,6-tetrahydropyridine-3-carbonitrile] | 15
COc1ccc(NC(=O)C2=C(c3ccn(C4CC4)n3)C[C@](c3ccc(OCCCC(F)(F)F)cc3)(C(F)(F)F)NC2=O)cc1 [Example 76, (S)-4-(1-Cyclopropyl-1H-pyrazol-3-yl)-N-(4-methoxyphenyl)-2-oxo-6-(4-(4,4,4-trifluorobutoxy)phenyl)-6-(trifluoromethyl)-1,2,5,6-tetrahydropyridine-3-carboxamide] | 4.2
Cc1cnn(C2=C(C#N)C(=O)N[C@@](c3ccc(OCCCC(F)(F)F)cc3)(C(F)(F)F)C2)c1 [Example 77] | 522

The remaining lines, values ahead:

IC50 [nM] | Structure (SMILES)
1.1 | O=C1N[C@@](c2ccc(OCCCC(F)(F)F)cc2Cl)(C(F)(F)F)CC(c2ncc(C3CC3)s2)=C1c1nnn[nH]1 [Example 64]
8.8 | CCc1ccc(C2=C(c3nnn[nH]3)C(=O)N[C@@](c3ccc(Br)cc3)(C(F)(F)F)C2)s1 [Example 65]
0.5 | CCc1cnc(C2=C(c3nnn[nH]3)C(=O)N[C@@](c3ccc(OCCCCCC(F)(F)F)cc3F)(C(F)(F)F)C2)s1 [Example 66]
32.3 | COc1ccc(C2=C(C#N)C(=O)N[C@@](c3ccc(OCCCCC(F)(F)F)cc3)(C(F)(F)F)C2)cn1 [Example 70, (S)-6-Methoxy-2′-oxo-6′-(trifluoromethyl)-6′-(4-((5,5,5-trifluoropentyl)oxy)phenyl)-1′,2′,5′,6′-tetrahydro-[3,4′-bipyridine]-3′-carbonitrile]
31.5 | Cc1ccc(C2=C(C#N)C(=O)N[C@@](c3ccc(OCCCCCC(F)(F)F)cc3)(C(F)(F)F)C2)s1 [Example 71, (S)-4-(5-Methylthiophen-2-yl)-2-oxo-6-(4-((6,6,6-trifluorohexyl)oxy)phenyl)-6-(trifluoromethyl)-1,2,5,6-tetrahydropyridine-3-carbonitrile]
1.5 | CCc1ccc(C2=C(NC(=O)CS(C)(=O)=O)C(=O)N[C@@](c3ccc(OCCCCCC(F)(F)F)cc3)(C(F)(F)F)C2)s1 [Example 75, (S)—N-(4-(5-Ethylthiophen-2-yl)-2-oxo-6-(4-((6,6,6-trifluorohexyl)oxy)phenyl)-6-(trifluoromethyl)-1,2,5,6-tetrahydropyridin-3-yl)-2-(methylsulfonyl)acetamide]
